Values after ≈ are worked out from the molar mass of the structure shown.
Tests used:
Assay type in all cases: functional
Acinetobacter baumannii [1] = test: Antimicrobial activity against ISAba1 linked with the blaOXA-51-type beta-lactamase harboring Acinetobacter baumannii beta clonal group isolate 17 expressing ompA, adeB, adeM, aacA4, blaSHV-5 by Etest method
Acinetobacter baumannii [2] = test: Antimicrobial activity against Acinetobacter baumannii alpha clonal group isolate 3 expressing ampC, ompA, adeB, adeM, aacC1, aadA1 by Etest method
Acinetobacter baumannii [3] = test: Antimicrobial activity against Acinetobacter baumannii lambda clonal group isolate 27 expressing ampC, ompA, adeB, adeM, aadB, aadA1 by Etest method
Acinetobacter baumannii [4] = test: Antimicrobial activity against ISAba1 linked with the blaOXA-51-type beta-lactamase harboring Acinetobacter baumannii zeta clonal group isolate 19 expressing ampC, ompA, adeB, adeM, aacC2 by Etest method
Acinetobacter baumannii [5] = test: Antimicrobial activity against Acinetobacter baumannii unique clonal group isolate 39 expressing ampC, ompA, adeM by Etest method
Acinetobacter baumannii [6] = test: Antimicrobial activity against ISAba1 linked with the blaOXA-51-type beta-lactamase harboring Acinetobacter baumannii beta clonal group isolate 9 expressing ampC, ompA, adeB, adeM by Etest method
Acinetobacter baumannii [7] = test: Antimicrobial activity against ISAba1 linked with the blaOXA-51-type beta-lactamase harboring Acinetobacter baumannii lambda clonal group isolate 29 expressing ampC, ompA, adeM, aadB, aadA1 by Etest method
Acinetobacter baumannii [8] = test: Antimicrobial activity against Acinetobacter baumannii nu clonal group isolate 33 expressing ampC, ompA, adeB, adeM by Etest method
Acinetobacter baumannii [9] = test: Antimicrobial activity against ISAba1 linked with the blaOXA-51-type beta-lactamase harboring Acinetobacter baumannii beta clonal group isolate 16 expressing ompA, adeB, adeM, aacA4, blaSHV-5 by Etest method
Acinetobacter baumannii [10] = test: Antimicrobial activity against ISAba1 linked with the blaOXA-51-type beta-lactamase harboring Acinetobacter baumannii zeta clonal group isolate 22 expressing ampC, ompA, adeB, adeM, aadA1, aacA4, aacC2, blaSHV-5 by Etest method
Acinetobacter baumannii [11] = test: Antimicrobial activity against Acinetobacter baumannii eta clonal group isolate 35 expressing ampC, ompA, adeB, adeM by Etest method
Acinetobacter baumannii [12] = test: Antimicrobial activity against ISAba1 linked with the blaOXA-51-type beta-lactamase harboring Acinetobacter baumannii beta clonal group isolate 10 expressing ompA, adeB, adeM, aacA4, blaSHV-5 by Etest method
Acinetobacter baumannii [13] = test: Antimicrobial activity against ISAba1 linked with the blaOXA-51-type beta-lactamase harboring Acinetobacter baumannii beta clonal group isolate 15 expressing ompA, adeB, adeM, aacA4, blaSHV-5 by Etest method
Acinetobacter baumannii [14] = test: Antimicrobial activity against ISAba1 linked with the blaOXA-51-type beta-lactamase harboring Acinetobacter baumannii alpha clonal group isolate 8 expressing ampC, ompA, adeB, adeM, aacC1, aadA1 by Etest method
Acinetobacter baumannii [15] = test: Antimicrobial activity against Acinetobacter baumannii nu clonal group isolate 34 expressing ampC, ompA, adeB, adeM by Etest method
Acinetobacter baumannii [16] = test: Antimicrobial activity against Acinetobacter baumannii alpha clonal group isolate 4 expressing ampC, ompA, adeB, adeM, aacC1, aadA1 by Etest method
Acinetobacter baumannii [17] = test: Antimicrobial activity against Acinetobacter baumannii nu clonal group isolate 31 expressing ampC, ompA, adeB, adeM, aadB, aadA2 by Etest method
Acinetobacter baumannii [18] = test: Antimicrobial activity against ISAba1 linked with the blaOXA-51-type beta-lactamase harboring Acinetobacter baumannii zeta clonal group isolate 24 expressing ampC, ompA, adeB, adeM, aadA1, aacA4, aacC2, blaSHV-5 by Etest method
Acinetobacter baumannii [19] = test: Antimicrobial activity against ISAba1 linked with the blaOXA-51-type beta-lactamase harboring Acinetobacter baumannii zeta clonal group isolate 25 expressing ampC, ompA, adeB, adeM, aadA1, aacA4, aacC2, blaSHV-5 by Etest method
Acinetobacter baumannii [20] = test: Antimicrobial activity against ISAba1 linked with the blaOXA-51-type beta-lactamase harboring Acinetobacter baumannii zeta clonal group isolate 20 expressing ampC, ompA, adeB, adeM, aacC2 by Etest method
Acinetobacter baumannii [21] = test: Antimicrobial activity against ISAba1 linked with the blaOXA-51-type beta-lactamase harboring Acinetobacter baumannii beta clonal group isolate 13 expressing ompA, adeB, adeM, aacA4, blaSHV-5 by Etest method
Acinetobacter baumannii [22] = test: Antimicrobial activity against ISAba1 linked with the blaOXA-51-type beta-lactamase harboring Acinetobacter baumannii beta clonal group isolate 18 expressing ompA, adeB, adeM, aacA4, blaSHV-5 by Etest method
Acinetobacter baumannii [23] = test: Antimicrobial activity against ISAba1 linked with the blaOXA-51-type beta-lactamase harboring Acinetobacter baumannii unique clonal group isolate 40 expressing ampC, ompA, adeB, adeM, aadA1, aacA4, aacC2, blaSHV-5 by Etest method
Acinetobacter baumannii [24] = test: Antimicrobial activity against ISAba1 linked with the blaOXA-51-type beta-lactamase harboring Acinetobacter baumannii zeta clonal group isolate 23 expressing ampC, ompA, adeB, adeM, aadA1, aacA4, aacC2, aphA6 by Etest method
Acinetobacter baumannii [25] = test: Antimicrobial activity against ISAba1 linked with the blaOXA-51-type beta-lactamase harboring Acinetobacter baumannii alpha clonal group isolate 7 expressing ampC, ompA, adeB, adeM, blaSHV-5 by Etest method
Acinetobacter baumannii [26] = test: Antimicrobial activity against ISAba1 linked with the blaOXA-51-type beta-lactamase harboring Acinetobacter baumannii beta clonal group isolate 11 expressing ompA, adeB, adeM, blaSHV-5 by Etest method
Acinetobacter baumannii [27] = test: Antimicrobial activity against ISAba1 linked with the blaOXA-51-type beta-lactamase harboring Acinetobacter baumannii lambda clonal group isolate 30 expressing ampC, ompA, adeB, adeM, aadB, aadA1 by Etest method
Acinetobacter baumannii [28] = test: Antimicrobial activity against ISAba1 linked with the blaOXA-51-type beta-lactamase harboring Acinetobacter baumannii beta clonal group isolate 14 expressing ompA, adeB, adeM, aacA4, blaSHV-5 by Etest method
Acinetobacter baumannii [29] = test: Antimicrobial activity against Acinetobacter baumannii alpha clonal group isolate 5 expressing ampC, ompA, adeB, adeM, aacC1, aadA1 by Etest method
Acinetobacter baumannii [30] = test: Antimicrobial activity against Acinetobacter baumannii nu clonal group isolate 32 expressing ampC, ompA, adeB, adeM, aadB, aadA2 by Etest method
Acinetobacter baumannii [31] = test: Antimicrobial activity against ISAba1 linked with the blaOXA-51-type beta-lactamase harboring Acinetobacter baumannii beta clonal group isolate 12 expressing ompA, adeB, adeM, aacA4, aacC2, blaSHV-5 by Etest method
Acinetobacter baumannii [32] = test: Antimicrobial activity against Acinetobacter baumannii eta clonal group isolate 36 expressing ampC, ompA, adeB, adeM by Etest method
Acinetobacter baumannii [33] = test: Antimicrobial activity against Acinetobacter baumannii unique clonal group isolate 37 expressing ampC, ompA, adeB, adeM by Etest method
Acinetobacter baumannii [34] = test: Antimicrobial activity against Acinetobacter baumannii alpha clonal group isolate 2 expressing ampC, ompA, adeB, adeM, aacC1, aadA1 by Etest method
Acinetobacter baumannii [35] = test: Antimicrobial activity against ISAba1 linked with the blaOXA-51-type beta-lactamase harboring Acinetobacter baumannii lambda clonal group isolate 28 expressing ampC, ompA, adeM, aadB, aadA1 by Etest method
Acinetobacter baumannii [36] = test: Antimicrobial activity against ISAba1 linked with the blaOXA-51-type beta-lactamase harboring Acinetobacter baumannii zeta clonal group isolate 26 expressing ampC, ompA, adeB, adeM, aadA1, aacA4, aacC2, blaSHV-5 by Etest method
Acinetobacter baumannii [37] = test: Antimicrobial activity against Acinetobacter baumannii unique clonal group isolate 38 expressing ampC, ompA, adeB, adeM by Etest method
Acinetobacter baumannii [38] = test: Antimicrobial activity against ISAba1 linked with the blaOXA-51-type beta-lactamase harboring Acinetobacter baumannii zeta clonal group isolate 21 expressing ampC, ompA, adeB, adeM, aacC2, blaSHV-5 by Etest method
Acinetobacter baumannii [39] = test: Antimicrobial activity against ISAba1 linked with the blaOXA-51-type beta-lactamase harboring Acinetobacter baumannii alpha clonal group isolate 6 expressing ampC, ompA, adeB, adeM, aacC1, aadA1 by Etest method
Acinetobacter baumannii [40] = test: Antimicrobial activity against ISAba1 linked with the blaOXA-51-type beta-lactamase harboring Acinetobacter baumannii alpha clonal group isolate 1 expressing ampC, ompA, adeB, adeM by Etest method

Compound	MIC (Acinetobacter baumannii [1])	MIC (Acinetobacter baumannii [2])	MIC (Acinetobacter baumannii [3])	MIC (Acinetobacter baumannii [4])	MIC (Acinetobacter baumannii [5])	MIC (Acinetobacter baumannii [6])	MIC (Acinetobacter baumannii [7])	MIC (Acinetobacter baumannii [8])	MIC (Acinetobacter baumannii [9])	MIC (Acinetobacter baumannii [10])	MIC (Acinetobacter baumannii [11])	MIC (Acinetobacter baumannii [12])	MIC (Acinetobacter baumannii [13])	MIC (Acinetobacter baumannii [14])	MIC (Acinetobacter baumannii [15])	MIC (Acinetobacter baumannii [16])	MIC (Acinetobacter baumannii [17])	MIC (Acinetobacter baumannii [18])	MIC (Acinetobacter baumannii [19])	MIC (Acinetobacter baumannii [20])	also measured
C[C@@H](O)[C@H]1C(=O)N2C(C(=O)O)=C(S[C@@H]3CN[C@H](C(=O)N(C)C)C3)[C@H](C)[C@H]12 [MEROPENEM]	> 32 µg/mL	1.5 µg/mL (≈ 3.91 µM)	32 µg/mL (≈ 83.4 µM)	> 1.5 µg/mL	0.25 µg/mL (≈ 0.652 µM)	> 32 µg/mL	> 32 µg/mL	0.38 µg/mL (≈ 0.991 µM)	> 32 µg/mL	> 32 µg/mL	0.75 µg/mL (≈ 1.96 µM)	> 32 µg/mL	> 32 µg/mL	24 µg/mL (≈ 62.6 µM)	0.38 µg/mL (≈ 0.991 µM)	1.5 µg/mL (≈ 3.91 µM)	0.38 µg/mL (≈ 0.991 µM)	> 2 µg/mL	> 2 µg/mL	> 1.5 µg/mL	MIC (Acinetobacter baumannii [21]): > 32 µg/mL; MIC (Acinetobacter baumannii [22]): > 32 µg/mL; MIC (Acinetobacter baumannii [23]): > 32 µg/mL; MIC (Acinetobacter baumannii [24]): > 32 µg/mL; MIC (Acinetobacter baumannii [25]): > 32 µg/mL; MIC (Acinetobacter baumannii [26]): > 32 µg/mL; MIC (Acinetobacter baumannii [27]): > 32 µg/mL; MIC (Acinetobacter baumannii [28]): > 32 µg/mL; MIC (Acinetobacter baumannii [29]): 1.5 µg/mL (≈ 3.91 µM); MIC (Acinetobacter baumannii [30]): 0.38 µg/mL (≈ 0.991 µM); MIC (Acinetobacter baumannii [31]): > 32 µg/mL; MIC (Acinetobacter baumannii [32]): 0.75 µg/mL (≈ 1.96 µM); MIC (Acinetobacter baumannii [33]): 1.5 µg/mL (≈ 3.91 µM); MIC (Acinetobacter baumannii [34]): 1.5 µg/mL (≈ 3.91 µM); MIC (Acinetobacter baumannii [35]): > 32 µg/mL; MIC (Acinetobacter baumannii [36]): > 2 µg/mL; MIC (Acinetobacter baumannii [37]): 0.38 µg/mL (≈ 0.991 µM); MIC (Acinetobacter baumannii [38]): 16 µg/mL (≈ 41.7 µM); MIC (Acinetobacter baumannii [39]): 12 µg/mL (≈ 31.3 µM); MIC (Acinetobacter baumannii [40]): 4 µg/mL (≈ 10.4 µM)
CN(C)c1cc(NC(=O)CNC(C)(C)C)c(O)c2c1C[C@H]1C[C@H]3[C@H](N(C)C)C(O)=C(C(N)=O)C(=O)[C@@]3(O)C(O)=C1C2=O [TIGECYCLINE]	0.5 µg/mL (≈ 0.854 µM)	1 µg/mL (≈ 1.71 µM)	0.19 µg/mL (≈ 0.324 µM)	0.75 µg/mL (≈ 1.28 µM)	0.25 µg/mL (≈ 0.427 µM)	3 µg/mL (≈ 5.12 µM)	0.19 µg/mL (≈ 0.324 µM)	0.5 µg/mL (≈ 0.854 µM)	0.5 µg/mL (≈ 0.854 µM)	2 µg/mL (≈ 3.41 µM)	0.25 µg/mL (≈ 0.427 µM)	1 µg/mL (≈ 1.71 µM)	0.5 µg/mL (≈ 0.854 µM)	2 µg/mL (≈ 3.41 µM)	0.5 µg/mL (≈ 0.854 µM)	1 µg/mL (≈ 1.71 µM)	0.5 µg/mL (≈ 0.854 µM)	1 µg/mL (≈ 1.71 µM)	1 µg/mL (≈ 1.71 µM)	0.75 µg/mL (≈ 1.28 µM)	MIC (Acinetobacter baumannii [21]): 0.5 µg/mL (≈ 0.854 µM); MIC (Acinetobacter baumannii [22]): 3 µg/mL (≈ 5.12 µM); MIC (Acinetobacter baumannii [23]): 0.75 µg/mL (≈ 1.28 µM); MIC (Acinetobacter baumannii [24]): 1.5 µg/mL (≈ 2.56 µM); MIC (Acinetobacter baumannii [25]): 0.75 µg/mL (≈ 1.28 µM); MIC (Acinetobacter baumannii [26]): 1 µg/mL (≈ 1.71 µM); MIC (Acinetobacter baumannii [27]): 2 µg/mL (≈ 3.41 µM); MIC (Acinetobacter baumannii [28]): 0.5 µg/mL (≈ 0.854 µM); MIC (Acinetobacter baumannii [29]): 1 µg/mL (≈ 1.71 µM); MIC (Acinetobacter baumannii [30]): 0.5 µg/mL (≈ 0.854 µM); MIC (Acinetobacter baumannii [31]): 1 µg/mL (≈ 1.71 µM); MIC (Acinetobacter baumannii [32]): 0.25 µg/mL (≈ 0.427 µM); MIC (Acinetobacter baumannii [33]): 0.25 µg/mL (≈ 0.427 µM); MIC (Acinetobacter baumannii [34]): 1 µg/mL (≈ 1.71 µM); MIC (Acinetobacter baumannii [35]): 0.19 µg/mL (≈ 0.324 µM); MIC (Acinetobacter baumannii [36]): 1 µg/mL (≈ 1.71 µM); MIC (Acinetobacter baumannii [37]): 0.09 µg/mL (≈ 0.154 µM); MIC (Acinetobacter baumannii [38]): 1.5 µg/mL (≈ 2.56 µM); MIC (Acinetobacter baumannii [39]): 0.75 µg/mL (≈ 1.28 µM); MIC (Acinetobacter baumannii [40]): 1 µg/mL (≈ 1.71 µM)
